Laboratory results taken from PubChem BioAssay (NCI).
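Each compound was tested at five concentrations against cells in 96-well plates for 48 hours. TGI denotes the concentration required for complete inhibition of growth.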

Assays:
Assay in all cases: growth of human tumour cells (NCI), 48 h
HOP-92 NSCLC = system: HOP-92 NSCLC
XF 498 CNS = system: XF 498 CNS
HT29 colon = system: HT29 colon
MALME-3M melanoma = system: MALME-3M melanoma
DLD-1 colon = system: DLD-1 colon
IGROV1 ovarian = system: IGROV1 ovarian
DMS 273 small cell lung = system: DMS 273 small cell lung
HOP-18 NSCLC = system: HOP-18 NSCLC
EKVX NSCLC = system: EKVX NSCLC
HCC-2998 colon = system: HCC-2998 colon
M19-MEL melanoma = system: M19-MEL melanoma
UACC-62 melanoma = system: UACC-62 melanoma
NCI-H226 lung = system: NCI-H226 lung
HCT-116 colon = system: HCT-116 colon
CAKI-1 renal = system: CAKI-1 renal
HL-60(TB) leukemia = system: HL-60(TB) leukemia
LOX IMVI melanoma = system: LOX IMVI melanoma
SK-MEL-5 melanoma = system: SK-MEL-5 melanoma
HCT-15 colon = system: HCT-15 colon
SF-295 CNS = system: SF-295 CNS
U251 CNS = system: U251 CNS
SF-268 CNS = system: SF-268 CNS
UACC-257 melanoma = system: UACC-257 melanoma
RPMI-8226 leukemia = system: RPMI-8226 leukemia
COLO 205 colon = system: COLO 205 colon
OVCAR-5 ovarian = system: OVCAR-5 ovarian
A549 NSCLC = system: A549 NSCLC
ACHN renal = system: ACHN renal
KM20L2 colon = system: KM20L2 colon
SW-620 colon = system: SW-620 colon
TK-10 renal = system: TK-10 renal
SR leukemia = system: SR leukemia
DMS 114 small cell lung = system: DMS 114 small cell lung
CCRF-CEM leukemia = system: CCRF-CEM leukemia
NCI-H460 lung = system: NCI-H460 lung
SK-MEL-2 melanoma = system: SK-MEL-2 melanoma
OVCAR-3 ovarian = system: OVCAR-3 ovarian
KM12 colon = system: KM12 colon
M14 melanoma = system: M14 melanoma
MOLT-4 leukemia = system: MOLT-4 leukemia
A498 renal = system: A498 renal
LXFL 529 NSCLC = system: LXFL 529 NSCLC
HOP-62 NSCLC = system: HOP-62 NSCLC
UO-31 renal = system: UO-31 renal
NCI-H522 lung = system: NCI-H522 lung
SN12C renal = system: SN12C renal
SNB-19 CNS = system: SNB-19 CNS
786-0 renal = system: 786-0 renal
NCI-H23 lung = system: NCI-H23 lung
SF-539 CNS = system: SF-539 CNS
RXF 393 renal = system: RXF 393 renal
OVCAR-8 ovarian = system: OVCAR-8 ovarian
SK-MEL-28 melanoma = system: SK-MEL-28 melanoma
K-562 leukemia = system: K-562 leukemia
SK-OV-3 ovarian = system: SK-OV-3 ovarian
SNB-75 CNS = system: SNB-75 CNS
SNB-78 CNS = system: SNB-78 CNS
OVCAR-4 ovarian = system: OVCAR-4 ovarian

Measured: TGI

COC[C@@H]1[C@H]2OC(C)(C)O[C@H]2C(=O)N1C(=O)c1ccc(OC)cc1
> 100 µM: all assays above
